# Source: PMC3694332 (Biopharmaceutics & drug disposition, 2009)
# Where two headings read alike, the source gives them in different places.
# Columns and labels:
# [1] = test system: CaCo2 cell monolayers; conditions: cited from earlier work
# [2] = test system: cellular GSH levels; conditions: 100 μM, 2 h incubation; cited from earlier work
# [3] = rats; cited from earlier work
# [4] = Effect of BITC co-administration on topotecan pharmacokinetics; conditions: Sprague-Dawley, rat, plasma
# [5] = test system: BCRP; conditions: NHI-H460/MX20, BCRP; cited from earlier work
# [6] = test system: P-gp; conditions: verapamil or PSC833; Caco-2, MCF-7/ADR, MDA435/LCC6, MDA435/LCC6MDR1 cells; cited from earlier work
# [7] = human, in vivo; cited from earlier work
# [8] = test system: MRP1; conditions: cited from earlier work
# [9] = test system: P-gp; conditions: cited from earlier work; for investigated as substrate (S)/inhibitor (I): 8226/Dox, P-gp
# [10] = test system: P-gp; conditions: MCF7/ADR cells, 100 μM isothiocyanate, 2 h; cited from earlier work
# [11] = rat, in vivo, cited from earlier work
# [12] = test system: BCRP; conditions: FTC 10 μM, 25 μM PEITC; cited from earlier work
# [13] = test system: MRP1; conditions: Panc-1 cells, 100 μM isothiocyanate, 2 h; cited from earlier work
# [14] = test system: MRP2; conditions: cited from earlier work
# [15] = test system: MRP1; conditions: cited from earlier work; remark: listed apart in the source
# [16] = rats, cited from earlier work
# [17] = cited from earlier work
smiles,measurement,setting,value
"S=C=NCc1ccccc1 [BITC, benzyl isothiocyanate]",increase in accumulation of daunomycin,[1],1.75 fold
same,"GSH, % of control values in untreated cells",[2],15.3±6.4 % of control
same,decrease of cellular GSH levels,[2],decreased
"S=C=Nc1cccc2ccccc12 [NITC, α-naphthyl isothiocyanate]",decrease of cellular GSH levels,[2],not
same,Nonlinear pharmacokinetics,[3],Yes
CC[C@@]1(O)C(=O)OCc2c1cc1n(c2=O)Cc2cc3c(CN(C)C)c(O)ccc3nc2-1 [topotecan],AUC(0-inf),"[4]; iv, 1 mg/kg, AUC0–∞, i.v. administration of 1 mg/kg topotecan, four rats",707 ng·h/mL
same,AUC(0-t),"[4]; po, 2 mg/kg, AUC0–720 min, topotecan alone (2 mg/kg dose)",182 ng·h/mL
"S=C=NCCc1ccccc1 [PEITC, phenethyl isothiocyanate]",investigated as substrate (S)/inhibitor (I),[5],Phenethyl isothiocyanate (S)
same,accumulation of 14C-PEITC in absence and presence of P-gp inhibitor,[6],not changed
same,CL/F,[7],29.5 L/h
same,Cmax,[7],0.928 µM
same,Half-life,[7],4.9 h
same,Tmax,[7],2.6 h
same,change of 14C tracer accumulation by MK571,"[8]; 100 μM MK571, higher PEITC concentrations",did not change
same,increase of 14C tracer accumulation by MK571,"[8]; 2 h co-incubation with 100 μM MK571, PEITC 1 μM",6.8 fold
same,increase of 14C tracer accumulation by MK571,"[8]; 2 h co-incubation with 100 μM MK571, PEITC 5 μM",5.9 fold
same,increase of 14C tracer accumulation by MK571,"[8]; 2 h co-incubation with 100 μM MK571, PEITC 20 μM",1.9 fold
same,investigated as substrate (S)/inhibitor (I),[9],Phenethyl isothiocyanate (S)
same,increase in accumulation of vinblastine,[10],not
same,clearance,[11]; 2 umol/kg,11.6 mL/min/kg
same,Half-life,"[11]; iv, 66 mg/kg",13.1 h (i.v.)
same,Cmax,"[11]; po, 16.3 mg/kg",42.1 µM
same,Tmax,"[11]; po, 16.3 mg/kg",2.0 h
same,oral bioavailability,[11]; po,high
same,Nonlinear pharmacokinetics,[11],Yes
same,increase in accumulation of daunomycin,[1],1.85 fold
same,decrease of ATP-dependent accumulation of PEITC in inside-out vesicles by FTC,[12],1.7 fold
same,increase in accumulation of vinblastine,[13],2 fold
same,increase of intracellular 14C accumulation by MK571,"[14]; 50 μM MK571, PEITC 1 μM",2.5 fold
same,increase of intracellular 14C accumulation by MK571,"[14]; 50 μM MK571, PEITC 5 μM",3.5 fold
same,increase of intracellular 14C accumulation by MK571,"[14]; 50 μM MK571, PEITC 10 μM",4.5 fold
same,increase of intracellular 14C accumulation by MK571,"[14]; 50 μM MK571, PEITC 50 μM",1.8 fold
same,intracellular 14C lower in MDCK/MRP2 than in wild type MDCKII cells,[14]; PEITC 1 μM,55%
same,intracellular 14C lower in MDCK/MRP2 than in wild type MDCKII cells,[14]; PEITC 5 μM,14%
same,intracellular 14C lower in MDCK/MRP2 than in wild type MDCKII cells,[14]; PEITC 10 μM,12%
same,intracellular 14C lower in MDCK/MRP2 than in wild type MDCKII cells,[14]; PEITC 50 μM,61%
same,"GSH, % of control values in untreated cells",[2],10±3.5 % of control
same,decrease of cellular GSH levels,[2],decreased
C=CCN=C=S [Allyl isothiocyanate],investigated as substrate (S)/inhibitor (I),"[15]; HL60/AR, MRP1",Allyl isothiocyanate (S)
"C[S+]([O-])CCCCN=C=S (stereo not drawn) [Sulforaphane, sulforaphane]",accumulation of intracellular sulforaphane with inhibitors of MRP1,[15]; MRP1 over-expressing cells,increased
same,investigated as substrate (S)/inhibitor (I),[9],Sulforaphane (S)
same,accumulation of intracellular sulforaphane with inhibitors of P-gp,[9]; P-gp over-expressing cells,increased
same,Cmax,"[16]; 50 μmol oral (Table 1: 88.5 mg oral), plasma",20 µM
same,Half-life,[16]; 50 μmol oral (Table 1: 88.5 mg oral),2.23 h
same,Half-life,"[16]; 50 μmol oral (Table 1: 88.5 mg oral), listed as sulforaphane",about 2.2 h
same,Tmax,[16]; 88.5 mg oral,4 h
CC[C@@]1(O)C(=O)OCc2c1cc1n(c2=O)Cc2cc3c(CNC)c(O)ccc3nc2-1 [N-desmethyl topotecan],percent of N-desmethyl topotecan formed,[17]; in the plasma,less than 0.7%
same,percent of N-desmethyl topotecan formed,[17]; in the urine,1–4%
